Test results from publication PMC11923649, “Novel C-2 Aromatic Heterocycle-Substituted Triterpenoids Inhibit Hedgehog Signaling in GLI1 Overexpression Cancer Cells” (ACS Omega, 2025).

Legend:
T98G (glioblastoma) = assay: MTS cytotoxicity assay, 72 h, T98G; format: cell-based; details: Homo sapiens
Excerpt: (§1) Concerning nonsmall cell lung carcinoma (NSCLC)-derived cell lines, we selected two subtype groups with different expression levels of GLI1, based on a study by Yuan et al.[35] The first group includes cell lines where GLI1 is highly expressed (A549 and NCI-H522), while the second group includes low GLI1-expressing cell lines (HOP-62 and NCI-H322). It has been established that cell lines expressing high levels of GLI1 are relatively resistant to SMO antagonists due to a hyper-activated HH signaling pathway.[35] […] These interesting findings may indicate the potential of 11b to overcome hyper-activated HH signaling in particular NSCLC subsets. […] Lower activity was observed against medulloblastoma (DAYO) and glioblastoma (T98G)-derived cell lines with an IC50 above 20 μmol/L.
(§2) The human prostate tumor-derived cell line DU145 was obtained from ATCC (American Type Culture Collection) and cultured in RPMI 1640 (Roswell Park Memorial Institute) medium supplemented with 10% (v/v) fetal bovine serum (FBS). Human prostate tumor-derived LNCaP cells were obtained from ATCC and cultured in RPMI 1640 medium supplemented with 10% FBS. […] Finally, the absorbance at 490 nm was measured using an EnVision multifunctional modular reader (PerkinElmer). The IC50 value was determined using Dotmatics software.

[1] = tested on: NCI-H322 (NSCLC, low GLI1); assay: MTS cytotoxicity assay, 72 h, NCI-H322; format: cell-based, human; details: compared with A549
Excerpt: as §1, §2

[2] = Microsomal stability, human liver microsomes with NADPH; format: in vitro ADME; details: for Category of Intrinsic clearence: calculated from microsomal stability, category per ref 39; for Microsomal stability % Compound remaining 15 min / Microsomal stability % Compound remaining 30 min / Microsomal stability % Compound remaining 60 min: human liver microsomes, NADPH
Protocol: Data from a plasma protein binding study can inform about distribution into tissues of the body and reduction in the amount of drug available to be metabolized or cleared from the body. The measurement of plasma protein binding was performed using a Rapid Equilibrium Dialysis device; 11a and 11b compounds reported a percent of fraction bound around 90%. For the microsomal stability assay, human liver microsomes and NADPH cofactor were used to assess phase I oxidation by cytochrome P450 and flavin monooxygenases. The intrinsic clearance calculated from the microsomal stability assay indicated the medium category for both derivatives (Table 3).

DAOY (medulloblastoma) = assay: MTS cytotoxicity assay, 72 h, DAOY; format: cell-based; details: Homo sapiens, read-out: IC50 medulloblastoma (DAYO)
Excerpt: as §1, §2

HOP-62 (NSCLC, low GLI1) = assay: MTS cytotoxicity assay, 72 h, HOP-62; format: cell-based, human; details: compared with A549
Excerpt: as §1, §2

[3] = tested on: Gli1 protein in A549 cells; assay: Western blot of Gli1 in A549 cells, 24 h; format: cell-based, human; details: A549, 24 h, immunoblot
Protocol: In order to verify that compounds 11a and 11b inhibit the proliferation of A549 and DU-145 through Hh inhibition, we monitored the expression of Hh target genes in these cell lines (Figure 2). […] The decreased protein expression of Gli1 targets Cyclin D1, N-Myc, and Bcl-2 strongly indicates inhibition of its transcriptional activity, and their downregulation correlates with the data obtained by the U-87 MG-Gli-FLuc reporter assay. Importantly, these proteins are involved in cell cycle progression, proliferation, and survival. N-Myc amplification or deregulation of transcription, stability, and degradation is associated with many malignancies,[34] and the observed downregulation induced by 11a and 11b may reduce its oncogenic effect.
Figure 2 Effect of compounds 11a and 11b on the protein expression of the Gli1 transcription factor and its transcriptional targets in A549 (A) and DU145 (B) cells following 24 h of incubation. […]
Cells were washed with PBS and lysed on ice in 200 μL of RIPA (Radioimmunoprecipitation Assay) buffer for 30 min. Then, cell lysates were clarified by centrifugation (15000 rpm, 20 min, 4 °C), and the protein concentration in the collected supernatants was determined using a BCA method (Bicinchoninic Acid test). […] Luminescence signal detection was performed by using an Odyssey FC instrument (LI-COR Biosciences).

Row | SMILES | IC50 (T98G (glioblastoma)) [µM] | IC50 of NCI-H322 relative to A549 [1] | Category of Intrinsic clearence [2] | Microsomal stability % Compound remaining 15 min [2] [%] | Microsomal stability % Compound remaining 30 min [2] [%] | Microsomal stability % Compound remaining 60 min [2] [%] | IC50 (DAOY (medulloblastoma)) [µM] | IC50 of HOP-62 relative to A549 (HOP-62 (NSCLC, low GLI1)) | Endogenous Gli1 protein level [3]
1 | C=C(C)[C@@H]1CC[C@]2(C(=O)O)CC[C@]3(C)C(CCC4[C@@]5(C)C=C(c6ccoc6)C(=O)C(C)(C)C5CC[C@]43C)C12 (some centres unmarked) [Compound 11b, 2-(Furan-3-yl)-3-oxolupa-1,20(29)-dien-28-oic acid] | > 20 | almost two times higher | Medium | 84 | 69 | 51 | > 20 | almost two times higher | inhibit the endogenous Gli1 protein level in a dose-dependent manner
2 | C=C(C)[C@@H]1CC[C@]2(C(=O)O)CC[C@]3(C)C(CCC4[C@@]5(C)C=C(c6ccco6)C(=O)C(C)(C)C5CC[C@]43C)C12 (some centres unmarked) [Compound 11a, 2-(Furan-2-yl)-3-oxolupa-1,20(29)-dien-28-oic acid] |  |  | Medium | 88 | 72 | 52 |  |  | inhibit the endogenous Gli1 protein level in a dose-dependent manner
